The values below come from patent EP4610269A1, “UROKINASE PLASMINOGEN ACTIVATOR SURFACE RECEPTOR (UPAR) LIGANDS FOR DIAGNOSTIC OR THERAPEUTIC USE” (3B Pharmaceuticals GmbH, priority 2024, dated 2025).

For one data set, the target named is T1, human uPAR (uPAR-Fc) (Homo sapiens, UniProt Q03405).
T1 construct: comprising amino acids Leu23-Arg303 according to UniProt entry Q03405.1; purchased R&D Systems 10378-UK-100
In words: Surface plasmon resonance (SPR) assay, single cycle kinetics. The format is binding. The following applies: pKD category for uPAR SPR activity assay, uPAR-Fc on Protein A-Chip, 25°C, read-out: pKD CAT (converted). In a few lines: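 uPAR-Fc (Leu23-Arg303 extracellular domains, human IgG1 Fc) captured on Protein A chip to ~2000 RU; single-cycle kinetics at 25°C in HEPES running buffer pH 7.4 with 0.1% DMSO. KD from double-referenced sensorgrams fitted to 1:1 Langmuir model, reported as pKD.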

In data set [1] the target is T2, uPAR-expressing HEC-265 human endometrial adenocarcinoma cells (Homo sapiens, UniProt Q03405).
T2 construct: Cell surface uPAR-expressing HEC-265 human endometrial adenocarcinoma cells; host or cells: HEC-265
The experiment in a line: Competitive FACS binding assay. The conditions noted are these: pIC50 category of FACS binding. In a few lines:
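HEC-265 cells incubated 1 h at 4 °C with 10 nM biotinylated uPAR peptide tracer plus increasing test compound, then stained with APC-streptavidin on ice. Median APC fluorescence by flow cytometry; 4PL fit gives pIC50.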

The target in data set [2] is T3, Recombinant soluble human NEP (Homo sapiens, UniProt P08473).
T3 construct: Recombinant soluble human NEP; purchased BioTechne, Wiesbaden, Germany
In words: Proteolytic stability assay against NEP. Format: in vitro ADME. The following applies: human NEP 100 ng/mL, compound 10 µM, 37°C, LC-MS quantification; for remaining at 24 h, 10 µM: recombinant soluble human NEP, read-out: % intact compound remaining after 24h incubation. The protocol:
To assess the stability of compounds against NEP, the compounds were subjected to an in vitro assay based on the protocol described by Edelson et al. (Edelson, Makhlina et al. 2013).
Recombinant soluble human NEP (BioTechne, Wiesbaden, Germany) at a concentration of 100 ng/mL was mixed with the compound (10 µM) and a stable internal standard (10 µM) and incubated at 37°C. After several time points, samples were taken and analyzed with LC-MS.
The determination of the analyte in the clean sample solutions was performed on an Agilent 1290 UHPLC system coupled to an Agilent 6530 Q-TOF mass spectrometer. The chromatographic separation was carried out on a Phenomenex BioZen XB-C18 HPLC column (50 × 2 mm, 1.7 µm particle size) with gradient elution using a mixture of 0.1% formic acid in water as eluent A and acetonitrile as eluent B (2% B to 41% in 7 min, 800 µl/min, 40°C). Mass spectrometric detection was performed in positive ion ESI mode by scanning the mass range from m/z 50 to 3000 with a sampling rate of 2 / sec.
(§1) From the mass spectrometric raw data the ion currents for the double or triple charged monoisotopic signal was extracted for both, the compound and the internal standard.
(§2) Quantitation was performed by external matrix calibration with internal standard using the integrated analyte signals.
The activity of NEP was examined using a commercially available chromogenic substrate of NEP.
The result is stated as "% intact compound remaining after 24 h incubation" and means that from the amount of material at the start of the experiment the stated percentage is detected as unchanged material at the end of the experiment by LC-MS quantification. Since all compounds are more than 50% intact after 24 h they are considered as stable enough for diagnostic and therapeutic applications. Table 14: Results of the NEP stability assay

Data set [3] is described as follows: Plasma stability assay (mouse plasma). Format: in vitro ADME. The conditions noted are these: 37°C, LC-MS quantification. How it is done: (§3) In order to determine the stability of selected compounds of the invention in human and mouse plasma, a plasma stability assay was carried out. Such plasma stability assay measures degradation of compounds of the present invention in blood plasma. This is an important characteristic of a compound as compounds, with the exception of pro-drugs, which rapidly degrade in plasma, generally show poor in vivo efficacy. […] The stability is sufficient for the diagnostic, therapeutic and theragnostic use of these compounds according to the present invention.
(§4) The plasma stability samples were prepared by spiking 50 µl plasma aliquots (all sodium citrate 3.7%) with 1 µl of a 0.5 mM compound stock solution in DMSO. After vortexing the samples were incubated in a Thermomixer at 37°C for 0 and 6 hours. After incubation the samples were stored on ice until further treatment. All samples were prepared in duplicates.
A suitable internal standard was added to each sample (1 µl of a 0.5 mM stock solution in DMSO). Protein precipitation was performed using two different methods depending on the compound conditions as indicated in Table 13. • A) 250 µl of acetonitrile containing 1% trifluoroacetic acid was added. After incubation at room temperature for 30 min the precipitate was separated by centrifugation and 150 µl of the supernatant was diluted with 150 µl of 1% aqueous formic acid. • B) 150 µl of a zinc sulphate precipitation agent containing 78% 0.1 M zinc sulphate and 22% acetonitrile was added. After incubation at room temperature for 30 min the precipitate was separated by centrifugation. To 100 µl of the supernatant 10 µl of 1% formic acid was added followed by further incubation at 60°C for 10 min to complete the formation of the zinc chelate, if the compound contains a free DOTA moiety.
The determination of the analyte in the clean sample solutions was performed on an Agilent 1290 UHPLC system coupled to an Agilent 6530 Q-TOF mass spectrometer. The chromatographic separation was carried out on a Phenomenex BioZen XB-C18 HPLC column (50 x 2 mm, 1.7 µm particle size).
Two different elution gradients were applied using a mixture of 0.1% formic acid in water as eluent A and acetonitrile as eluent B: • A) 2% B to 41% in 7 min, 800 µl/min, 40°C. • B) 5% B to 50% B in 6 min, 800 µL/min, 40°C.
Mass spectrometric detection was performed in positive ion ESI mode by scanning the mass range from m/z 50 to 3000 with a sampling rate of 2 / sec.
as §1, §2
(§5) Additionally, recovery was determined by spiking a pure plasma sample that only contained the internal standard after treatment with a certain amount of the compound.
(§6) Carry-over was evaluated by analysis of a blank sample (20% acetonitrile) after the highest calibration sample.
The result is stated as "% intact compound remaining after 6 h incubation" and means that from the amount of material at the start of the experiment the stated percentage is detected as unchanged material at the end of the experiment by LC-MS quantification. Since all compounds are more than 50% intact after 6 h they are considered as stable enough for diagnostic and therapeutic applications. Table 13: Results of the plasma stability assay

Data set [4] can be described thus: Plasma stability assay (human plasma). Format: in vitro ADME. The conditions noted are these: human plasma (sodium citrate 3.7%), 37°C, LC-MS quantification, read-out: % intact compound remaining after 6h incubation Human plasma. How it is done: as §3, §4
A suitable internal standard was added to each sample (1 µl of a 0.5 mM stock solution in DMSO). Protein precipitation was performed using two different methods depending on the compound conditions as indicated in Table 13. • A) 250 µl of acetonitrile containing 1% trifluoroacetic acid was added. […]
as §2, §5, §6
The result is stated as "% intact compound remaining after 6 h incubation" and means that from the amount of material at the start of the experiment the stated percentage is detected as unchanged material at the end of the experiment by LC-MS quantification. […]

Like-named read-outs stand apart in the source and are kept apart here. Where a SMILES comes first, the peptide text is derived from it. Bridges are numbered along the chain shown (N, C = ends). [ ]: non-standard residue; d: D form. The star is where a group is joined. GdDOTA = Gd(III) DOTA conjugate, O=C([O-])CN1CCN(CC(=O)[O-])CCN(CC(=O)*)CCN(CC(=O)[O-])CC1.[Gd+3]; DOTA = O=C(O)CN1CCN(CC(=O)O)CCN(CC(=O)*)CCN(CC(=O)O)CC1; Phe(4-Cl) = N[C@@H](Cc1ccc(Cl)cc1)C(=O)O; Pro(cis-4-F) = O=C(O)[C@@H]1C[C@H](F)CN1; Dopa = N[C@@H](Cc1ccc(O)c(O)c1)C(=O)O; Hyp = O=C(O)[C@@H]1C[C@@H](O)CN1; Pentanoyl(4-Me) = CC(C)CCC(=O)*; Cit = NC(=O)NCCC[C@H](N)C(=O)O; Butoxycarbonyl = CCCCOC(=O)*; Nva = CCC[C@H](N)C(=O)O; Pentanoyl = CCCCC(=O)* Bounds are passed on as bounds.

T1 sequence (Q03405 23-303): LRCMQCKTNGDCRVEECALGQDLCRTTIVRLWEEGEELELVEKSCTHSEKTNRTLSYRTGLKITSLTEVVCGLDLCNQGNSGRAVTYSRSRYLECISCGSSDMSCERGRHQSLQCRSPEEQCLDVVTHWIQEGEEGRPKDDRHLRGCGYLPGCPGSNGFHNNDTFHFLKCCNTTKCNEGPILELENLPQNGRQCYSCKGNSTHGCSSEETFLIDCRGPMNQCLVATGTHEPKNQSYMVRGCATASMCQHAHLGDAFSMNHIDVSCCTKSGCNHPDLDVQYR
T3 sequence (P08473 52-750 limits assumed): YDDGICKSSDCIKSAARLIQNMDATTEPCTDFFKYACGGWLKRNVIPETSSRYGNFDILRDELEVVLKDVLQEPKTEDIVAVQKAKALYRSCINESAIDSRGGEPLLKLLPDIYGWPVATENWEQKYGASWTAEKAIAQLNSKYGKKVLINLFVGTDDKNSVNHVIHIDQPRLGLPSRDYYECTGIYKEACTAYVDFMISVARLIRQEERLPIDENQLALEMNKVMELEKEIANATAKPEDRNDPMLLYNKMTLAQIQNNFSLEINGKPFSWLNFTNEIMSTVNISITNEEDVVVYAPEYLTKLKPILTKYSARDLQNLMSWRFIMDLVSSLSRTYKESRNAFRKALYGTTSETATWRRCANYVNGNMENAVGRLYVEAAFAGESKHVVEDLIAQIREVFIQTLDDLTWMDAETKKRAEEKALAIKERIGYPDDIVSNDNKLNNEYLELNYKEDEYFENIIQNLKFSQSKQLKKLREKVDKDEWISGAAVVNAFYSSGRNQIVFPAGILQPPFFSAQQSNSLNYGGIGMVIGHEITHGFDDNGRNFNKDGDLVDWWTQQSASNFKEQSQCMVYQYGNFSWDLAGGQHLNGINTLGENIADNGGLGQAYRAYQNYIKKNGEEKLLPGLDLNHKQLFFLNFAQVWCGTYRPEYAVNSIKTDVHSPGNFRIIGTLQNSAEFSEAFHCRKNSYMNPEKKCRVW
T2 sequence (Q03405 23-335): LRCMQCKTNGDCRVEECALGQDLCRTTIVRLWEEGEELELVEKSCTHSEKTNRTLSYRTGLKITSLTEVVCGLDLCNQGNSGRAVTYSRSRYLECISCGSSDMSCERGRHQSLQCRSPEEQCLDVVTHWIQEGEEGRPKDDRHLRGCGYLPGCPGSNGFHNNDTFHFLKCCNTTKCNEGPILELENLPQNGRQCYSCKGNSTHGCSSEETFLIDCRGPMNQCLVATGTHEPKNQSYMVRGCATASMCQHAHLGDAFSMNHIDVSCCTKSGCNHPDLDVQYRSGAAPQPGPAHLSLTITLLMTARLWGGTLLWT

Take `CC[C@H](C)[C@@H]1NC(=O)[C@@H]2CCCN2C(=O)[C@@H]2CCCN2C(=O)[C@H](Cc2ccccc2)NC(=O)[C@H](Cc2ccc(O)cc2)NC(=O)[C@H](CCC(N)=O)NC(=O)[C@H](CCCCNC(=O)CN2CCN(CC(=O)O)CCN(CC(=O)O)CCN(CC(=O)O)CC2)NC(=O)[C@@H](NC(=O)CCC(C)C)CSSC[C@@H](C(N)=O)NC(=O)[C@H](CC(C)C)NC1=O` [UPAR-466, iHex-[Cys-Lys(DOTA)-Gln-Tyr-Phe-Pro-Pro-Ile-Leu-Cys]-NH2] ({Pentanoyl(4-Me)}-CK(DOTA)QYFPPILC-NH2; disulfide 1-10): the Kd on human uPAR (uPAR-Fc) (single cycle kinetics) was under 1.58 nM. Moreover, the IC50 in data set [1] is at most 10 nM. Besides, the fraction remaining at 24 h, 10 µM in data set [2] was over 95%.

For “iHex-[Cys-Cit-Lys(GdDOTA)-Tyr-Phe-Pro-ala-Ile-Leu-Cys]-NH2 ({Pentanoyl(4-Me)}-C[Cit]K(GdDOTA)YFP[dA]ILC-NH2; disulfide 1-10 (inferred); not fully specified) [UPAR-463]”, the “% intact compound remaining after 6h incubation Mouse plasma” value in data set [3] (mouse plasma (sodium citrate)) is 81%. Besides, the “pIC50 CAT” value in data set [1] is reported as “A (pIC50 values ≥8.0)”. In addition, the “% intact compound remaining after 24h incubation” value in data set [2] was 88%.

As for `CCCCOC(=O)N[C@H]1CSSC[C@@H](C(N)=O)NC(=O)[C@H](CCC)NC(=O)[C@H]([C@@H](C)CC)NC(=O)[C@@H]2C[C@@H](O)CN2C(=O)[C@@H]2C[C@H](F)CN2C(=O)[C@H](Cc2ccccc2)NC(=O)[C@H](Cc2ccc(O)c(O)c2)NC(=O)[C@H](CCCCNC(=O)CN2CCN(CC(=O)O)CCN(CC(=O)O)CCN(CC(=O)O)CC2)NC(=O)[C@H]([C@@H](C)O)NC1=O` [UPAR-249, Butoc-[Cys-Thr-Lys(DOTA)-Dopa-Phe-4Cfp-Hyp-Ile-Nva-Cys]-NH2] (Butoxycarbonyl-CTK(DOTA)[Dopa]F[Pro(cis-4-F)][Hyp]I[Nva]C-NH2; disulfide 1-10), the fraction remaining at 6 h, 9.8 µM is 64% in data set [4] and 22% in data set [3] (mouse plasma (sodium citrate 3.7%), read-out: % intact compound remaining after 6h incubation Mouse plasma). Further, the Kd on human uPAR (uPAR-Fc) was under 1.58 nM. This molecule had an IC50 in data set [1] of at most 10 nM.

For the molecule `CCCCC(=O)N[C@H]1CSSC[C@@H](C(N)=O)NC(=O)[C@H](CCC)NC(=O)[C@H]([C@@H](C)CC)NC(=O)[C@@H]2C[C@@H](O)CN2C(=O)[C@@H]2CCCN2C(=O)[C@H](Cc2ccc(Cl)cc2)NC(=O)[C@H](Cc2ccc(O)cc2)NC(=O)[C@H](CCCCNC(=O)CN2CCN(CC(=O)O)CCN(CC(=O)O)CCN(CC(=O)O)CC2)NC(=O)[C@H](CCCNC(N)=O)NC1=O` [UPAR-233, Pent-[Cys-Cit-Lys(DOTA)-Tyr-Pcf-Pro-Hyp-Ile-Nva-Cys]-NH2] (Pentanoyl-C[Cit]K(DOTA)Y[Phe(4-Cl)]P[Hyp]I[Nva]C-NH2; disulfide 1-10), the Kd on human uPAR (uPAR-Fc) is under 1.58 nM. The IC50 in data set [1] was at most 10 nM. In data set [2], the share remaining at 24 h, 10 µM is over 95%.
